Source: ChEMBL document CHEMBL1148413, “5-Fluorinated L-lysine analogues as selective induced nitric oxide synthase inhibitors” (J Med Chem, 2004)

Columns and labels:
[1] = biological target: T1, Nitric oxide synthase, inducible (Homo sapiens, UniProt P35228); assay: Inhibition concentration against Inducible nitric oxide synthase (iNOS) at 10 uM concentration
Nitric oxide synthase 3 [2] = biological target: T2, Nitric oxide synthase 3 (Homo sapiens, UniProt P29474); assay: (§1) Inhibition concentration against Endothelial nitric oxide synthase (eNOS) at 10 uM concentration
T2 sequence (P29474 whole entry): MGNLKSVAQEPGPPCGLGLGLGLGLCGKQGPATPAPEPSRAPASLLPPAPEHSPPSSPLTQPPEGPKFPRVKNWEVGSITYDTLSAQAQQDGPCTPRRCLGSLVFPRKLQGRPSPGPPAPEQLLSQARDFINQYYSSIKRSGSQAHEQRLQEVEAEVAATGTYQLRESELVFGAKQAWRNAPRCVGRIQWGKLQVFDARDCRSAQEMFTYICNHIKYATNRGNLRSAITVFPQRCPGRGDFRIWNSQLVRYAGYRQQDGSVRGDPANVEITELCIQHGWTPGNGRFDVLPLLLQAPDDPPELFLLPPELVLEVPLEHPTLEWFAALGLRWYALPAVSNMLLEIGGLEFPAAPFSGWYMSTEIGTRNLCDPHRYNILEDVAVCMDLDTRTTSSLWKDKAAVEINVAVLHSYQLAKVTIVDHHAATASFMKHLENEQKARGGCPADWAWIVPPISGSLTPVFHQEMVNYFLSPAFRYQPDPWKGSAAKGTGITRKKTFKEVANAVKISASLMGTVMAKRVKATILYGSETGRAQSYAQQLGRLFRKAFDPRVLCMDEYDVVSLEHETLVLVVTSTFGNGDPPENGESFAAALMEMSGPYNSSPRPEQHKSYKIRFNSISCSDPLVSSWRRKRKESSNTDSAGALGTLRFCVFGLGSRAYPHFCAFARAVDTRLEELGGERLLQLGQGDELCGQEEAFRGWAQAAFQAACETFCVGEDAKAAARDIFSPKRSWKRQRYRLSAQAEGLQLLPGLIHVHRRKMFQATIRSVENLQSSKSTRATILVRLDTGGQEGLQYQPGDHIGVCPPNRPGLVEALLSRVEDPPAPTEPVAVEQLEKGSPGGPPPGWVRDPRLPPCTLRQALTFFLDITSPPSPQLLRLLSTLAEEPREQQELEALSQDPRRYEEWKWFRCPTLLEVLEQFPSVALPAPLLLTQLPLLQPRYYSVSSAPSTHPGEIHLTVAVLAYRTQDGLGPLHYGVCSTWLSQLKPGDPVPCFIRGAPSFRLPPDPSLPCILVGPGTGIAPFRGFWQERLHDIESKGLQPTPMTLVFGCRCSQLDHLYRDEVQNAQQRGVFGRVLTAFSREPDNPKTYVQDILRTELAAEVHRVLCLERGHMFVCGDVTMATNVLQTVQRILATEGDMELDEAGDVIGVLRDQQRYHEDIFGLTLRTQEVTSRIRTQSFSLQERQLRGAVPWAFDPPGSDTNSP

[3] = biological target: T3, Nitric oxide synthase 3 (Homo sapiens) (UniProt P29474); assay: Selectivity for endothelial nitric oxide synthase over inducible nitric oxide synthase
T3 sequence (whole entry): T2 sequence (P29474 whole entry)

Nitric oxide synthase 1 [4] = biological target: T4, Nitric oxide synthase 1 (Homo sapiens, UniProt P29475); assay: Selectivity for Neuronal nitric oxide synthase over inducible nitric oxide synthase
T4 sequence (P29475 whole entry): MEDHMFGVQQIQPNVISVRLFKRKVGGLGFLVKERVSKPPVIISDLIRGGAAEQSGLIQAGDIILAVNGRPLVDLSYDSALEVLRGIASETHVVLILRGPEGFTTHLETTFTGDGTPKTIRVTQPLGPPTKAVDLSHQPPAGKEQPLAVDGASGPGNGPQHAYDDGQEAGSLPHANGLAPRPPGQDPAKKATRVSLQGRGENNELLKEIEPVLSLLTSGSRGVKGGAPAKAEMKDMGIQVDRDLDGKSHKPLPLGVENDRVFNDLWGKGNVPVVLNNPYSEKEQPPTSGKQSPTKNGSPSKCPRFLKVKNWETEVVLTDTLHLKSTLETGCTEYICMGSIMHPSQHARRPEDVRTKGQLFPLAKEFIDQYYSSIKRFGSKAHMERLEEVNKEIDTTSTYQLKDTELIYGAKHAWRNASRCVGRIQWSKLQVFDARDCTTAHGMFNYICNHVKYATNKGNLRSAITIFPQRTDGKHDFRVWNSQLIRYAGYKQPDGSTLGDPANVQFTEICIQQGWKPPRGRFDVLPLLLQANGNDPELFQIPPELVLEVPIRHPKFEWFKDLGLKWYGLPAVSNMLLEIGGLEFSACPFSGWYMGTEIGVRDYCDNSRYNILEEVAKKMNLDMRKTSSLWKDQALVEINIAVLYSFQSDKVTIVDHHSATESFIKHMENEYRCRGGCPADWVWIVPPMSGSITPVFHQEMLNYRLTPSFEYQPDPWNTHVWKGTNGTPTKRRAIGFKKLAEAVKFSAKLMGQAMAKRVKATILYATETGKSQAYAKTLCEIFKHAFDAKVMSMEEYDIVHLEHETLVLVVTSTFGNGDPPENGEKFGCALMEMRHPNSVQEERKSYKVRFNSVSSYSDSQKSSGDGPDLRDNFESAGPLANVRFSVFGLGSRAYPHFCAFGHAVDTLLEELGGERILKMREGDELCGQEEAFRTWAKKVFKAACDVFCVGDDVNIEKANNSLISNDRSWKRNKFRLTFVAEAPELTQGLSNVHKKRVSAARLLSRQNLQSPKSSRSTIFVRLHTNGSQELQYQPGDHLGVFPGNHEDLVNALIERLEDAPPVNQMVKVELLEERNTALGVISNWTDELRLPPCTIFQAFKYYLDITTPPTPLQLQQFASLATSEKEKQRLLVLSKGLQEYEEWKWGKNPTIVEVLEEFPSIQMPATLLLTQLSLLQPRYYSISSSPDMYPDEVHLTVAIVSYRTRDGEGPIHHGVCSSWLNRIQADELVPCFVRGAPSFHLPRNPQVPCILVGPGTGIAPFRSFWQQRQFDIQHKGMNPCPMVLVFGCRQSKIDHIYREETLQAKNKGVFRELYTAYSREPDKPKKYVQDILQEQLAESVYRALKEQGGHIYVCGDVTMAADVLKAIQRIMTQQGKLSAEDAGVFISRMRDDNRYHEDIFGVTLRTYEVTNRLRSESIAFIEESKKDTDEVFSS

Nitric oxide synthase 1 [5] = biological target: T4, Nitric oxide synthase 1; assay: Inhibition concentration against Neuronal nitric oxide synthase (nNOS) at 10 uM concentration
[6] = biological target: T1, Nitric oxide synthase, inducible; conditions: 10 uM
Nitric oxide synthase 1 [7] = biological target: T4, Nitric oxide synthase 1; conditions: 10 uM
[8] = biological target: T3, Nitric oxide synthase 3 (Homo sapiens); assay: as §1
Nitric oxide synthase 3 [9] = biological target: T2, Nitric oxide synthase 3; assay: Percent inhibition against Endothelial nitric oxide synthase (eNOS) at 10 uM concentration

T1 sequence (P35228 whole entry): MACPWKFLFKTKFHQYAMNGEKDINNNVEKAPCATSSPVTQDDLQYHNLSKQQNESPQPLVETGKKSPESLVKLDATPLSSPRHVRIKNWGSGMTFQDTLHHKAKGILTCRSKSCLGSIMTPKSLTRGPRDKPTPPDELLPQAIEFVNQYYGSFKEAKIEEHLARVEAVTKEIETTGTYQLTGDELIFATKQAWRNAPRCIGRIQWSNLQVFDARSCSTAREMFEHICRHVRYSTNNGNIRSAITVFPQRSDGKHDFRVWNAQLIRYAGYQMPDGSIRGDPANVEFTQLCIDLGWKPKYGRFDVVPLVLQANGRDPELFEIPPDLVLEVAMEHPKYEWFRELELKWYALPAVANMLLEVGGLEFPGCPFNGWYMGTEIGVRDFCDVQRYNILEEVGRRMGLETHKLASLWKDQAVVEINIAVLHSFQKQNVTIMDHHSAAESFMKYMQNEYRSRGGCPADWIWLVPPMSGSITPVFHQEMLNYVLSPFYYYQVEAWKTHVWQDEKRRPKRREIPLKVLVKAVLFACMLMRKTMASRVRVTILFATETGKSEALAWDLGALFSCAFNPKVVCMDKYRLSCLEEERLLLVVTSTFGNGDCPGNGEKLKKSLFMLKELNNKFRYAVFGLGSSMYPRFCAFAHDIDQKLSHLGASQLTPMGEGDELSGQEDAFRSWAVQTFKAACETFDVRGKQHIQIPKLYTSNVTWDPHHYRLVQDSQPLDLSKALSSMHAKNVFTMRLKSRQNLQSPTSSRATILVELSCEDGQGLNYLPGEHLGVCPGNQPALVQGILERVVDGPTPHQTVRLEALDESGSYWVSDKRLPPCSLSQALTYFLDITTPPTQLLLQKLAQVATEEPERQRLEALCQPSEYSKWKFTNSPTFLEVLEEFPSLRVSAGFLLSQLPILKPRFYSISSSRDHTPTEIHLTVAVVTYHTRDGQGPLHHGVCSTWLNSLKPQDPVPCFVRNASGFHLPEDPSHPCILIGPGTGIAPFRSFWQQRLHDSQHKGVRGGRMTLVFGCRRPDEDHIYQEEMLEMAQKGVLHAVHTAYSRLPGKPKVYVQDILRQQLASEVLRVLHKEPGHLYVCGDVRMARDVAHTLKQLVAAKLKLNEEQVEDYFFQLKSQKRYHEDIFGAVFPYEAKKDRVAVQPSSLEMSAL

| SMILES | IC50 [1] [µM] | IC50 (Nitric oxide synthase 3 [2]) [µM] | Selectivity [3] | Selectivity (Nitric oxide synthase 1 [4]) | IC50 (Nitric oxide synthase 1 [5]) [µM] | inhibition [6] [%] | inhibition (Nitric oxide synthase 1 [7]) [%] | inhibition [8] [%] | Inhibition (Nitric oxide synthase 3 [9]) [%] |
| --- | --- | --- | --- | --- | --- | --- | --- | --- | --- |
| CC(=N)NC[C@H](F)CC[C@@H](N)C(=O)O |  |  |  |  |  | 8.9 | 18 | 6.52 |  |
| CC(=N)NC[C@@H](F)CC[C@@H](N)C(=O)O | 47.8 | 374 | 8 | 7 | 311 |  |  |  |  |
| CC(=N)NC[C@H](F)CC[C@H](N)C(=O)O |  |  |  |  |  | 4 | 0 |  | 28.2 |

Second part, the compound after the results:

| IC50 [1] [µM] | IC50 (Nitric oxide synthase 3 [2]) [µM] | Selectivity [3] | Selectivity (Nitric oxide synthase 1 [4]) | IC50 (Nitric oxide synthase 1 [5]) [µM] | inhibition [6] [%] | inhibition (Nitric oxide synthase 1 [7]) [%] | inhibition [8] [%] | Inhibition (Nitric oxide synthase 3 [9]) [%] | SMILES |
| --- | --- | --- | --- | --- | --- | --- | --- | --- | --- |
| 21.4 | 139 | 7 | 7 | 140 |  |  |  |  | CC(=N)NCC(F)(F)CCC(N)C(=O)O (centres undefined) |
| 8.75 | 57.5 | 7 | 4 | 33.8 |  |  |  |  | CC(=N)NCC(F)(F)CC[C@H](N)C(=O)O |
| 4.9 |  | 28 | 7 |  |  |  |  |  | CC(=N)NCCCC[C@H](N)C(=O)O [L-NIL] |
| 2.36 | 81 | 34 | 9 | 21.7 |  |  |  |  | CC(=N)NC[C@@H](F)CC[C@H](N)C(=O)O |
| 7.84 | 182 | 23 | 9 | 70.4 |  |  |  |  | CC(=N)NCC(F)CCC(N)C(=O)O (centres undefined) |
